Test system: H1 human embryonic stem cells
Assay: Dose ranging of compounds with activin A or GDF-8, SOX17 and cell number (Example 15)
Type: cell-based
Conditions: for SOX17 expression in combination with GDF-8 / cell numbers at the end of assay in combination with GDF-8: 78 nM to 10 μM compound with 100 ng/ml GDF-8; for SOX17 expression with activin A treatment: 78 nM to 10 μM compound with 100 ng/ml activin A, one or three days of compound
Method: Stock cultures of human embryonic stem cells (H1 human embryonic stem cell line) were maintained in an undifferentiated, pluripotent state on reduced growth factor […]™ (BD Biosciences; Cat #356231)-coated dishes in MEF conditioned medium supplemented with 8 ng/ml bFGF (PeproTech Inc.; Cat #100-18B) with passage on average every four days. Passage was performed, by exposing cell cultures to a solution of 1 mg/ml dispase (Invitrogen; Cat #17105-041) for 5 to 7 minutes at 37° C. followed by rinsing the monolayer with MEF conditioned culture medium and gentle scraping to recover cell clusters. Clusters were centrifuged at low speed to collect a cell pellet and remove residual dispase. Cell clusters were split at a 1:3 or 1:4 ratio for routine maintenance culture or a 1:1 ratio for immediate assay. All human embryonic stem cell lines were maintained at passage numbers less than 50 and routinely evaluated for normal karyotype and absence of mycoplasma.
Cell clusters were evenly resuspended in MEF conditioned medium supplemented with 8 ng/ml bFGF and seeded onto reduced growth factor […]™-coated 96-well Packard VIEWPLATES (PerkinElmer; Cat #6005182) in volumes of 0.1 ml/well. Daily feeding was conducted by aspirating spent culture medium from each well and replacing with an equal volume of fresh medium. Plates were maintained at 37° C., 5% CO2 throughout the duration of assay.
Assay was initiated by aspirating the culture medium from each well and adding back aliquots (100 μl) of test medium. Test conditions were performed in quadruplicate over a total four-day assay period, feeding daily by aspirating and replacing the medium from each well with fresh test medium. […] Test compounds in this assay included six of the compounds of the present invention: Compound 181, Compound 180, Compound 19, Compound 202, Compound 40, and Compound 34, and a commercial GSK31 inhibitor BIO (EMD Chemicals, Inc.; Cat #361550). On the first day of assay, wells were treated with various control or experimental conditions. Control conditions, with final assay concentrations as indicated, were as follows: 1) growth medium alone; 2) 20 ng/ml Wnt3a only R&D Systems; Cat #1324-WN/CF); 3) 100 ng/ml activin A (PeproTech; Cat #120-14); 4) 100 ng/mlactivin A and 20 ng/ml Wnt3a; 5) 100 ng/ml GDF-8 (R&D Systems, Cat #788-G8); 6) 100 ng/ml GDF-8 and 20 ng/ml Wnt3a. Test compounds were diluted two-fold in series to yield a concentration range from 78 nM to 10 μM in the final assay. Experimental test samples combined each individual compound dilution series with 100 ng/ml activin A or 100 ng/ml GDF-8, both treatment sets in the absence of Wnt3a. On the second and third day of assay, some wells continued to be treated with 20 ng/ml Wnt3a or diluted test compound in combination with either activin A or GDF-8. In other wells, activin A or GDF-8 treatment continued on the second and third day of assay, but Wnt3a or diluted test compound was removed.
At the conclusion of culture, assay plates were washed once with PBS (Invitrogen; Cat #14190), fixed with 4% paraformaldehyde (Alexis Biochemical; Cat #ALX-350-011) at room temperature for 20 minutes, then washed three times with PBS and permeabilized with 0.5% Triton X-100 (Sigma; Cat #T8760-2) for 20 minutes at room temperature. Cells were washed again three times with PBS and blocked with 4% chicken serum (Invitrogen; Cat #16110082) in PBS for 30 minutes at room temperature. Primary antibody (goat anti-human SOX17; R&D Systems; Cat #AF1924) was diluted 1:100 in 4% chicken serum and added to each well for two hours at room temperature. After washing three times with PBS, Alexa Fluor 488 conjugated secondary antibody (chicken anti-goat IgG; Invitrogen; Cat #A21467) diluted 1:200 in PBS was added to each well. To counterstain nuclei, 5 μg/ml Hoechst 33342 (Invitrogen; Cat #H3570) was added for fifteen minutes at room temperature. Plates were washed once with PBS and left in 100 μl/well PBS for imaging. […]

| Compound | SOX17 expression in combination with GDF-8 | cell numbers at the end of assay in combination with GDF-8 | SOX17 expression with activin A treatment | SOX17 expression, control treatments (100 ng/ml activin A versus 100 ng/ml GDF-8, alone or with Wnt3a) |
| --- | --- | --- | --- | --- |
| O=C1CCN2CCN(CC2)Cc2cc(Cl)cc(c2)Nc2ncnc(n2)-c2cncc(c2)CCCN1 [Compound 34, 5-Chloro-1,8,10,12,16,22,26,32-octaazapentacyclo[24.2.2.1˜3.7˜0.1˜9,13˜0.1˜14.18˜]tritriaconta-3(33), 4,6,9(32), 10,12,14(31), 15,17-nonaen-23-one] | significantly improved SOX17 expression | enhanced cell numbers | did not enhance SOX 17 expression |  |
| C=CCN1CC(=O)NCCCc2cncc(c2)-c2ncnc(n2)Nc2cccc(c2)C1 [Compound 40, 14-Prop-2-en-1-yl-3,5,7,14,17,23,27-heptaazatetracyclo[19.3.1.1˜2.6˜0.1˜8,12˜]heptacosa-1(25), 2(27), 3,5,8(26), 9,11,21,23-nonaen-16-one] | significantly improved SOX17 expression | enhanced cell numbers | did not enhance SOX 17 expression |  |
| CN1CCC(=O)NCCCc2cncc(c2)-c2ncnc(n2)Nc2cccc(c2)C1 [Compound 19, 14-Methyl-3,5,7,14,18,24,28-heptaazatetracyclo[20.3.1.1˜2,6˜0.1˜8,12˜]octacosa-1(26), 2(28), 3,5,8(27), 9,11,22,24-nonaen-17-one] | significantly improved SOX17 expression | enhanced cell numbers | did not enhance SOX 17 expression |  |
| Activin A: recombinant human activin A (PeproTech), TGF-beta family member |  |  |  | significantly higher SOX17 expression |

Reference: patent publication US9593305B2, “Differentiation of pluripotent stem cells” (Janssen Biotech, Inc., priority 2008, dated 2017)
